Values of other authors as cited in patent US8541386B2, “Cannabinoid 2 (CB2) receptor gene promoter and unique RNA transcripts in B cells and methods of use” (University of South Florida, priority 2009, dated 2013).

Tested on: IL-4/anti-CD40 stimulated B cells
Conditions: co-treatment of IL-4/anti-CD40 stimulated B cells; earlier work of the inventors' lab

## CCCCCCC(C)(C)c1ccc([C@@H]2C[C@H](O)CC[C@H]2CCCO)c(O)c1 [CP55940]
  immunoglobulin class switching to IgE: increased immunoglobulin class switching to IgE
